How the values were obtained:
[1] = system: PI3Kα mutant cancer cells HCC1954 (H1047R); test: Cell Titer-Glo proliferation inhibition, HCC1954; format: cell-based; details: Homo sapiens, 48 to 96 hours
Experimental: Experimental method: The proliferation inhibitory effect of the compounds of the examples on PI3Kα mutant cancer cell lines HCC1954, HGC-27 and MKN1 was determined by Cell Titer-Glo method. The cell lines were cultured in RPMI 1640 medium (Gibco #22400089) containing 10% FBS (Gibco #10091148) and 1% P/S (Hyclone #SV30010) at 37° C. and 5% CO2. Before the experiment, the cells were collected and counted, and then the cell density was adjusted. The cells were inoculated in a white 96-well plate (Corning #3610) at a density of 1000 to 10000 cells/well, and incubated in an incubator at 37° C., 5% CO2 overnight. The compound solution of different concentrations was added, and corresponding vehicle control was set at the same time. The cell plate was further incubated in an incubator at 37° C., 5% CO2 for 48 to 96 hours. The cell plate and its content were equilibrated to room temperature. 20 to 100 μL of Cell Titer-Glo solution (Promega #G7573) was added to each well, and the plate was shaked well and incubated at room temperature in the dark for 5 to 30 minutes. The chemiluminescence value was measured by the BioTek SynergyH1 microplate reader.
The percentage inhibition data of the well treated by the compounds of the examples was calculated through the vehicle control well on the plate {% inhibition rate=100−(test compound value/vehicle control value)×100}. The IC50 value was calculated by fitting the data of different concentrations and corresponding percentage inhibition rates to a four-parameter nonlinear logic formula with GraphPad prism.

PI3Kδ = molecular target: T1, PI3Kδ (Homo sapiens, UniProt O00329); test: ADP-Glo lipid kinase assay, PI3Kδ kinase activity; format: biochemical; details: 0.1 nM enzyme, 90 min, 100 μM ATP
T1 construct: purchased Carna 11-103
T1 sequence (O00329 whole entry): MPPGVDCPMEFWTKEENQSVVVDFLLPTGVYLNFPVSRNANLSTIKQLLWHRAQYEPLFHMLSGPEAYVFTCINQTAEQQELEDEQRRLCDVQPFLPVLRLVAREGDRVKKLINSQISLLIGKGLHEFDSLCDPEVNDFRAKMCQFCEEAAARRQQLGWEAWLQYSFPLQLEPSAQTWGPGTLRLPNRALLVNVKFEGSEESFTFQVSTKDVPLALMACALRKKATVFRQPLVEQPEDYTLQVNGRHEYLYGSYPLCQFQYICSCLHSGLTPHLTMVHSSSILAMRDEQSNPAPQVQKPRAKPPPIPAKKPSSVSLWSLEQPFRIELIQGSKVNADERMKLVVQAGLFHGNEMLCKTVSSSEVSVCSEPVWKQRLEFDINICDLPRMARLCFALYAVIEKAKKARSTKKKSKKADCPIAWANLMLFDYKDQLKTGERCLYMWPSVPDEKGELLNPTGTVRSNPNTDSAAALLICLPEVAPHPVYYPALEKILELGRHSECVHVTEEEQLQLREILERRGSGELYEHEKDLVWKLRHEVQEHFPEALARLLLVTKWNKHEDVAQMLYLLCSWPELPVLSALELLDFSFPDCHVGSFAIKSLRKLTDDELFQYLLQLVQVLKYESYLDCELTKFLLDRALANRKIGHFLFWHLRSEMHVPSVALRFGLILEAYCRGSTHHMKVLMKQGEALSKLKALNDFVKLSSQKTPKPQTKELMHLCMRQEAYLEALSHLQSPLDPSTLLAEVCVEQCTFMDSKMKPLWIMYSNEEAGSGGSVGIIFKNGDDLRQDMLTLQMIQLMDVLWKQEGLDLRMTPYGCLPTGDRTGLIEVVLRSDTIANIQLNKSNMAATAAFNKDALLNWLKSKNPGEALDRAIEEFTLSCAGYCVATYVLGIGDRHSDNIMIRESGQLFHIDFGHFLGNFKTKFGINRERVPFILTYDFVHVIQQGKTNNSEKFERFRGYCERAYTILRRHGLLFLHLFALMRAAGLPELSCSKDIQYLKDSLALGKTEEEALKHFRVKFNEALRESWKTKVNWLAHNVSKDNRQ
T1 sequence (P27986 whole entry partner): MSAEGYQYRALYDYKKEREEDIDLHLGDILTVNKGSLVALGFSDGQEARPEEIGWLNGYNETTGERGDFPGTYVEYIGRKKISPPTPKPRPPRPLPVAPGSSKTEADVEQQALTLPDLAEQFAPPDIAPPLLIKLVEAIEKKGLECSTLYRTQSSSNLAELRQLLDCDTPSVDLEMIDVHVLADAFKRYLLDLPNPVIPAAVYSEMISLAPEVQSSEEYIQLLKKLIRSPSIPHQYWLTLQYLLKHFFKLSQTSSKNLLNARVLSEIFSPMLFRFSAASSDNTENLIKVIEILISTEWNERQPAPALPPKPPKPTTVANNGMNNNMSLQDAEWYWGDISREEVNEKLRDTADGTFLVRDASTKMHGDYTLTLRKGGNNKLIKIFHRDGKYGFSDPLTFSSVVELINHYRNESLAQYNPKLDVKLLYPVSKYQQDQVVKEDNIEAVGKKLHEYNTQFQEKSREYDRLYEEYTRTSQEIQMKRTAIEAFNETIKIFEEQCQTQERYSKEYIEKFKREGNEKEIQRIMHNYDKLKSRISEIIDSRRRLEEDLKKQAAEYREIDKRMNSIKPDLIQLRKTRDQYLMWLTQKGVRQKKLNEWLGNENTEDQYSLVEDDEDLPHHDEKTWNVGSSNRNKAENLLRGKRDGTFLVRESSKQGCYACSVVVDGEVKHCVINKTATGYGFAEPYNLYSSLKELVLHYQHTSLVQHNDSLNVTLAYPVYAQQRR
Outline: (§1)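 ADP-Glo luminescence measured ADP formed by PI3Kα, β, γ or δ (0.1-2 nM working solution) with PIP2:3PS (50 μM added solution) and ATP in HEPES/MgCl2/NaCl/BSA buffer, 90 to 120 min at room temperature. % inhibition was set against DMSO and no-kinase controls, and IC50 came from a four-parameter fit.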

[2] = Pharmacokinetic (PK) assay in mice; format: in vivo; details: male, Balb/c, mouse, plasma, po, single intragastric 5 mg/kg
Outline: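 Male Balb/c mice received a single intragastric dose of 5 mg/10 ml/kg in 0.5% CMC-Na. Orbital blood was taken at 0.5, 1, 2, 4, 6, 8 and 24 h into K2-EDTA; plasma was acetonitrile-precipitated and analyzed by LC-MS/MS, and PK parameters were calculated.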

PI3Kβ = molecular target: T2, PI3Kβ (Homo sapiens, UniProt P42338); test: ADP-Glo lipid kinase assay, PI3Kβ kinase activity; format: biochemical; details: 0.4 nM enzyme, 90 min, 100 μM ATP
T2 construct: purchased Carna 11-102
T2 sequence (P42338 whole entry): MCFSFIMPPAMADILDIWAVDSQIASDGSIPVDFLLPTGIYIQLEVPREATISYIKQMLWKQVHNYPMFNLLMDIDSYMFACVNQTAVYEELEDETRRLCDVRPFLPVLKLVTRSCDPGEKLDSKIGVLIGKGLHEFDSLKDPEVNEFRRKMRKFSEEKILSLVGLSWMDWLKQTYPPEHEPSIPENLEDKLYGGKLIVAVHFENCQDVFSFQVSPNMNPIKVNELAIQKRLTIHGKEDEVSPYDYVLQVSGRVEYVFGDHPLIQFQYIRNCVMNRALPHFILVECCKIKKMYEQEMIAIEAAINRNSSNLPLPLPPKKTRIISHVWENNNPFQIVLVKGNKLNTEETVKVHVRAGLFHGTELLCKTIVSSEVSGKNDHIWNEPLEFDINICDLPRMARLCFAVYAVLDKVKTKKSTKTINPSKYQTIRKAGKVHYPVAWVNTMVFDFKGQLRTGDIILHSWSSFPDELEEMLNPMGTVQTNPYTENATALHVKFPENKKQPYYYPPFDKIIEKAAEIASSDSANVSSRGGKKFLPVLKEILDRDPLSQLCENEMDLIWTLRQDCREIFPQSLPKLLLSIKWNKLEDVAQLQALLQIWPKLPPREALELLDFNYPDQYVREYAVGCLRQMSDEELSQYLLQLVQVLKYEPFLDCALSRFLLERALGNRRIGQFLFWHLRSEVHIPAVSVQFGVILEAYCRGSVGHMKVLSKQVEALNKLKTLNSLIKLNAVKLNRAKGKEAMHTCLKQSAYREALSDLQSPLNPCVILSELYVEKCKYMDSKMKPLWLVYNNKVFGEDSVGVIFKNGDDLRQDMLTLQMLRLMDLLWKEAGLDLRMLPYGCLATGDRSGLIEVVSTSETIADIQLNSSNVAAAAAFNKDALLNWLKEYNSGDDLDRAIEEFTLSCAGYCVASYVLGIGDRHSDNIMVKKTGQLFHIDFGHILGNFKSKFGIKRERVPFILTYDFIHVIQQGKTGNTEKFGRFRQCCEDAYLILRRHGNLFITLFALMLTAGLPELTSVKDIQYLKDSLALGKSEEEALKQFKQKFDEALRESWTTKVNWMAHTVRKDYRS
T2 sequence (P27986 whole entry partner): as the sequence (P27986 whole entry partner) above
Outline: as §1

PI3Kα = molecular target: T3, PI3Kα (Homo sapiens, UniProt P42336); test: ADP-Glo lipid kinase assay, PI3Kα kinase activity; format: biochemical
T3 construct: purchased Promega V1721
T3 sequence (P42336 whole entry): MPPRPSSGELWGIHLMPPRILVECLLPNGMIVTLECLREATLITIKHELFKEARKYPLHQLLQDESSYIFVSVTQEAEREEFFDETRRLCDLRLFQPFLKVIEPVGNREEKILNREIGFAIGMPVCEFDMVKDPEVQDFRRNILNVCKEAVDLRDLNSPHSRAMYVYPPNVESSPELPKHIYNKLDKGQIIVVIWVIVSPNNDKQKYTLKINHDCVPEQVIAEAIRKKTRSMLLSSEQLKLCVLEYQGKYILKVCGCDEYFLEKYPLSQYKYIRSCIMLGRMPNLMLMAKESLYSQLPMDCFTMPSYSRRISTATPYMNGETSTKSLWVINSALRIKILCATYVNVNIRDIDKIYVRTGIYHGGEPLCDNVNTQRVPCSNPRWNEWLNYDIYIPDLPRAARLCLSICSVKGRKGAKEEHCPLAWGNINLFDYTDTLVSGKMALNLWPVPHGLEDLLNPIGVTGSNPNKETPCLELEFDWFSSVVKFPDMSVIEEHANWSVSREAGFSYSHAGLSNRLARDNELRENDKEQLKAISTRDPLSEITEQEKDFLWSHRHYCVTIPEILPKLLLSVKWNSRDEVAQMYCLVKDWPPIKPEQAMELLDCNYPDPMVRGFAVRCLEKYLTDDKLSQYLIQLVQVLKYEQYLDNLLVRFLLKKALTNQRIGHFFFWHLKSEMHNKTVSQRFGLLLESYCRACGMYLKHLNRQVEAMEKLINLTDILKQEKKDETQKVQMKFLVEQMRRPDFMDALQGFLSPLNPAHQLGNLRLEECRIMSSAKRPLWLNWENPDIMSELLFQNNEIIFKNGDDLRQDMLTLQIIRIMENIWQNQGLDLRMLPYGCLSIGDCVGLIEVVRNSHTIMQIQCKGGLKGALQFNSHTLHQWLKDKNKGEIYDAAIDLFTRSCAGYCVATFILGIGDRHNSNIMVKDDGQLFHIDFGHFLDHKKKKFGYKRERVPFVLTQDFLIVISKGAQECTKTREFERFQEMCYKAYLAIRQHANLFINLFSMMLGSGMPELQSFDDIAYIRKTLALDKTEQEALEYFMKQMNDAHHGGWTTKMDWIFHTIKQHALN
T3 sequence (P27986 whole entry partner): as the sequence (P27986 whole entry partner) above
Outline: as §1

Work on `C[C@H](Nc1ccc2c(c1)OCCn1cc(N3C(=O)COC[C@H]3C(F)F)nc1-2)C(N)=O` [Example 68, (S)-2-((2-((S)-3-(difluoromethyl)-5-oxomorpholino)-5,6-dihydrobenzo[f]imidazo[1,2-d][1,4]oxazepin-9-yl)amino)propanamide] yielded an IC50 [1] of 70 nM, an IC50 (PI3Kδ) of 24 nM and an AUC(0-t) ([2]; read-out: Area under curve AUC0-t) of 1320 ng·h/mL. For the same compound, the AUC(0-inf) ([2]; read-out: Area under curve AUC0-∞) was 1340 ng·h/mL, the half-life ([2]; read-out: Half-life t1/2(h) (converted)) was 1.6 h and the MRT ([2]; read-out: Mean residence time MRT) was 1.8 h. For the same compound, the Tmax ([2]; read-out: Peak time tmax) was 0.5 h, the Cmax ([2]; read-out: Plasma concentration Cmax) was 641 ng/mL and the IC50 (PI3Kβ) was 198 nM. The IC50 (PI3Kα; ADP-Glo, 0.1 nM enzyme, 120 min, 50 μM ATP) was 0.38 nM, the “Selectivity of PI3Kα vs PI3Kβ” value (PI3Kα; ratio of IC50 PI3Kβ to IC50 PI3Kα) was 521 and the “Selectivity of PI3Kα vs PI3Kγ” value (PI3Kα; ratio of IC50 PI3Kγ to IC50 PI3Kα) was 208. For the same compound, the “Selectivity of PI3Kα vs PI3Kδ” value (PI3Kα; ratio of IC50 PI3Kδ to IC50 PI3Kα) was 63.

From US20210221822A1, “TRICYCLIC DERIVATIVES INHIBITOR, PREPARATION METHOD, AND APPLICATIONS THEREOF” (Jiangsu Hansoh Pharmaceutical Group Co., Ltd., priority 2018, published 2021)
